Data as given in the supplement of paper PMC10307832.

How the values were obtained:
Experiment in all cases: relative viability (nuclei count vs DMSO), 5 days (fraction); higher = more cells survive
[1] = compound: C1=CC(=CC=C1C2=CC(=C(S2)NC(=O)N)C(=O)N)F [TPCA-1] + COc1cc2c(Oc3ccc(NC(=O)C4(C(=O)Nc5ccc(F)cc5)CC4)cc3F)ccnc2cc1OCCCN1CCOCC1 [Foretinib] (partner 0.25 µM)
Outline: (§1)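 Nuclei were stained with Hoechst during a one-step fixation (final 0.05% Triton X-100, 1% formaldehyde, 1 ug/ml Hoechst) carried out 5 days after dosing, then counted on 4× images. The cells, lung cancer lines in 1536-well plates, had been dosed by pin tool the day after seeding with one drug alone or a fixed anchor-drug dose plus five library-drug doses (not always all listed) in √10 steps. Relative viability is the nuclei count in treated wells divided by that in vehicle wells, and each value is the median of duplicate plates.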

[2] = compound: C[C@]12O[C@H](C[C@]1(O)CO)n1c3ccccc3c3c4c(c5c6ccccc6n2c5c31)CNC4=O [Lestaurtinib] + CC(C)C[C@H](NC(=O)[C@H](Cc1ccccc1)NC(=O)c1cnccn1)B(O)O [Bortezomib] (partner 0.002 µM)
Outline: as §1

[3] = compound: C1/C(=C\C2=CC=CS2)/C(=O)/C(=C/C3=CC=CS3)/C1 + COc1cc2c(Oc3ccc(NC(=O)C4(C(=O)Nc5ccc(F)cc5)CC4)cc3F)ccnc2cc1OCCCN1CCOCC1 [Foretinib] (partner 0.25 µM)
Outline: as §1

[4] = compound: C[C@]12O[C@H](C[C@]1(O)CO)n1c3ccccc3c3c4c(c5c6ccccc6n2c5c31)CNC4=O [Lestaurtinib] + CCNC(=O)c1noc(-c2cc(C(C)C)c(O)cc2O)c1-c1ccc(CN2CCOCC2)cc1 [Luminespib] (partner 0.01 µM)
Outline: as §1

Cell Line	relative viability ([1]; first compound 0.04 µM)	relative viability ([1]; first compound 0.4 µM)	relative viability ([1]; first compound 1.265 µM)	relative viability ([1]; first compound 4 µM)	relative viability ([2]; first compound 0.005 µM)	relative viability ([2]; first compound 0.01581 µM)	relative viability ([2]; first compound 0.05 µM)	relative viability ([2]; first compound 0.1581 µM)	relative viability ([2]; first compound 0.5 µM)	relative viability ([3]; first compound 0.2 µM)	relative viability ([3]; first compound 0.6325 µM)	relative viability ([3]; first compound 2 µM)	relative viability ([3]; first compound 6.325 µM)	relative viability ([3]; first compound 20 µM)	relative viability ([4]; first compound 0.005 µM)	relative viability ([4]; first compound 0.01581 µM)	relative viability ([4]; first compound 0.05 µM)	relative viability ([4]; first compound 0.1581 µM)	relative viability ([4]; first compound 0.5 µM)	relative viability ([1]; first compound 0.1265 µM)
NCI-H2347	1.03	1.16	0.551	0.782	0.871	1.49	1.17	0.961	0.797	0.703	1.1	1.08	0.729	1.03	0.501	0.661	0.404	0.246	0.297	
201T	1.12	1.07	1.09	0.9	1.17	1.12	1.17	1.24	0.937	1	1.09	1.25	0.752	1.02	1.16	1.07	1.14	1.09	0.357	1.04
PC-14	1.01	0.957	1.01	0.79	0.993	0.778	0.83	0.623	0.434	0.942	0.932	0.937	0.847	0.885	0.154	0.154	0.172	0.108	0.151	0.916
NCI-H1650	1.15	1.36	1.14	0.858	0.183	0.236	0.197	0.199	0.193	1.15	1.16	1.41	1.12	1.18	0.183	0.195	0.188	0.164	0.18	
NCI-H727	1.01	0.738	0.788	0.829	0.862	1.42	0.752	0.76	0.291	0.907	0.802	1.1	0.815	0.96	0.478	0.401	0.427	0.284	0.387	0.922
COR-L23	1.11	1.05	0.916	0.803	1.21	1.07		0.697	0.464	1.09	1.09	0.874	0.859	0.958	0.558	0.756	0.226	0.288	0.164	0.884
ChaGo-K-1	0.998	0.992	0.857	0.612	0.944	1.51	0.931	0.718	0.5	0.912	1.01	0.857	0.797	0.41	0.62	0.706	0.698	0.479	0.223	0.894
HOP-62	1.19	1.17	1.06	1.06	0.863	0.707	0.913	1.42	0.696	1.08	1.07	1.07	0.922	1.09	0.9	1.07	0.855	0.913	0.274	1.09
